These results are taken from patent US8822414B2, “Heterocyclic compounds suitable for the treatment of dyslipidemia” (Cadila Healthcare Limited, priority 2010, dated 2014).

The assay concerns the target pro-protein convertase of the subtype nine binding to recombinant LDLR-AB domain (Homo sapiens, UniProt Q8NBP7). The experiment in a line: in vitro quantitative solid phase binding assay (ELISA) of the subtype nine pro-protein convertase to immobilized LDLR. As to conditions: for inhibition at 100 µM: Concentration 100 μM; for inhibition at 1 µM: Concentration 1 μM; for inhibition at 10 µM: Concentration 10 μM; for inhibition at 5 µM: Concentration 5 μM. As for the experimental part:
The in vitro binding assay described hereinafter is a quantitative solid phase binding assay for determining the efficacy of the compounds. Plates were pre-coated with a recombinant LDLR-AB domain, which binds to the gene pro-protein convertase of the subtype nine. Test compound at different concentrations was added to the subtype gene and added to LDLR immobilized on the wells. The amount of bound gene is measured by binding it with biotinylated anti-His-tag monoclonal antibody, followed by binding with horseradish peroxidase conjugated streptavidin substrate. The color was quantified by ELISA reader at […] which reflects the relative amount of “the gene” that binds to LDLR in presence and absence of the inhibitor. EC50 values were calculated by nonlinear regression analysis using graph pad prism software. Each concentration point represents values in duplicates.
(In general: An ELISA detects its analyte on a solid surface through an enzyme-linked reagent.)

pro-protein convertase of the subtype nine binding to recombinant LDLR-AB domain, sequence (Q8NBP7 153-692): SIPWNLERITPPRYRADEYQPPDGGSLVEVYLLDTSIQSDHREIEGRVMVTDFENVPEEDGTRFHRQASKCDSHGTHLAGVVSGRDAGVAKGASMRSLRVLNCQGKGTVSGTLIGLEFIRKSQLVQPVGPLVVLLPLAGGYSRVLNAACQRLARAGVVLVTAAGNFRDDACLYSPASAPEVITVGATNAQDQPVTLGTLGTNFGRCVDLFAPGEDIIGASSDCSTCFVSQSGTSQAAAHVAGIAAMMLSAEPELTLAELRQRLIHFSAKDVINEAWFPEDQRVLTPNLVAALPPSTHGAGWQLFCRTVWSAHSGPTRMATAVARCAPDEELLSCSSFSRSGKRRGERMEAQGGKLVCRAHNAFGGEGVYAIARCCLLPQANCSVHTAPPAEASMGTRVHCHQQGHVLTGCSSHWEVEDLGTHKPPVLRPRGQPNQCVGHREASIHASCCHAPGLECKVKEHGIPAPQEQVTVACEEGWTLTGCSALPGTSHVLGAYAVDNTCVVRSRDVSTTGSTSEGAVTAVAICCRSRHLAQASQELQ
pro-protein convertase of the subtype nine binding to recombinant LDLR-AB domain, sequence (Q8NBP7 31-152 partner limits assumed): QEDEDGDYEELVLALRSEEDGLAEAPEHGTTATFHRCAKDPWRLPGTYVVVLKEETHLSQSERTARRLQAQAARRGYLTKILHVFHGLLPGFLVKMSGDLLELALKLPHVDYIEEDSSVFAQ

For orientation: inhibition means the share of the control response that was lost under treatment. For `CC(=NOCc1ccc(C#N)cc1)c1ccc(OCC(=O)NCC2CCOCC2)nc1` [Example 21, 2-((5-(1-(((4-cyanobenzyl)oxy)imino)ethyl)pyridin-2-yl)oxy)-N-((tetrahydro-2H-pyran-4-yl)methyl)acetamide], the inhibition at 100 µM came to 15%.

`CC(=NOCc1ccc(C(F)(F)F)cc1)c1ccc(NCC(=O)NCC2CCOCC2)cc1` [Example 20, N-((tetrahydro-2H-pyran-4-yl)methyl)-2-((4-(1-(((4-(trifluoromethyl)benzyl)oxy)imino)ethyl)phenyl)amino)acetamide]: the inhibition at 1 µM turned out to be 20%, the inhibition at 10 µM is 34% and the inhibition at 100 µM was determined as 57%.

For the compound `O=C(COc1ccc2c(c1)CCCC2=NOCc1ccc(Cl)cc1)NCC1CCOCC1` [Example 49, 2-((5-(((4-chlorobenzyl)oxy)imino)-5,6,7,8-tetrahydronaphthalen-2-yl)oxy)-N-((tetrahydro-2H-pyran-4-yl)methyl)acetamide], the inhibition at 10 µM was determined as 7% and the inhibition at 100 µM came out at 11%.

Take `Cc1cc(C(Cc2ccccc2)=NOCc2ccc(F)cc2)ccc1OCC(=O)NCC1CCOCC1` [Example 34, 2-(4-(1-(((4-fluorobenzyl)oxy)imino)-2-phenylethyl)-2-methylphenoxy)-N-((tetrahydro-2H-pyran-4-yl)methyl)acetamide]: the inhibition at 1 µM was determined as 7%, the inhibition at 10 µM amounted to 13% and the inhibition at 100 µM is 32%.

For `COc1ccc(CON=C(Cc2ccccc2)c2ccc(OCC(=O)NCC3CCOCC3)cc2)cc1` [Example 41, 2-(4-(1-(((4-methoxybenzyl)oxy)imino)-2-phenylethyl)phenoxy)-N-((tetrahydro-2H-pyran-4-yl)methyl)acetamide], the inhibition at 1 µM is 10% and the inhibition at 100 µM came to 19%.

For the compound `O=C(COc1ccc(C(Cc2ccncc2)=NOCc2ccc(C(F)(F)F)cc2)cc1)NCC1CCOCC1` [Example 13, 2-(4-(2-(pyridin-4-yl)-1-(((4-(trifluoromethyl)benzyl)oxy)imino)ethyl)phenoxy)-N-((tetrahydro-2H-pyran-4-yl)methyl)acetamide], the inhibition at 1 µM worked out at 22%, the inhibition at 10 µM worked out at 32% and the inhibition at 100 µM came out at 48%.

Turning to `COc1ccc(CON=C(Cc2ccccc2)c2ccc(OCC(=O)NCC3CCOCC3)c(C)c2)cc1` [Example 40, 2-(4-(1-(((4-methoxybenzyl)oxy)imino)-2-phenylethyl)-2-methylphenoxy)-N-((tetrahydro-2H-pyran-4-yl)methyl)acetamide], the inhibition at 10 µM is 20% and the inhibition at 100 µM worked out at 47%.

On to `CC(=NOCc1ccc(C(F)(F)F)cc1)c1ccc(NCC(=O)NCC2CCOCC2)nc1` [Example 4, N-((tetrahydro-2H-pyran-4-yl)methyl)-2-((5-(1-(((4-(trifluoromethyl)benzyl)oxy)imino)ethyl)pyridin-2-yl)amino)acetamide], for which the inhibition at 1 µM stood at 34%, the inhibition at 10 µM came to 39% and the inhibition at 100 µM stood at 51%.

As to `Cc1ccc(CON=C(Cc2ccccc2)c2ccc(OCC(=O)NCC3CCOCC3)c(C)c2)cc1` [Example 32, 2-(2-methyl-4-(1-(((4-methylbenzyl)oxy)imino)-2-phenylethyl)phenoxy)-N-((tetrahydro-2H-pyran-4-yl)methyl)acetamide], the inhibition at 1 µM worked out at 14%, the inhibition at 10 µM was found to be 35% and the inhibition at 100 µM came to 48%.

Take `Cc1cc(C(Cc2ccccc2)=NOCc2ccc(OC(F)(F)F)cc2)ccc1OCC(=O)NCC1CCOCC1` [Example 38, 2-(2-methyl-4-(2-phenyl-1-(((4-(trifluoromethoxy)benzyl)oxy)imino)ethyl)phenoxy)-N-((tetrahydro-2H-pyran-4-yl)methyl)acetamide]: the inhibition at 10 µM came out at 19% and the inhibition at 100 µM was 38%.

Regarding `O=C(COc1ccc(C(Cc2ccccc2)=NOCc2ccc(C(F)(F)F)cc2)cc1)NCC1CCOCC1` [Example 11, 2-(4-(2-phenyl-1-(((4-(trifluoromethyl)benzyl)oxy)imino)ethyl)phenoxy)-N-((tetrahydro-2H-pyran-4-yl)methyl)acetamide], the inhibition at 1 µM is 20%, the inhibition at 5 µM turned out to be 23%, the inhibition at 10 µM came to 49% and the inhibition at 100 µM was determined as 61%.

With `Cc1cc(C(Cc2ccccc2)=NOCc2ccc(C(F)(F)F)cc2)ccc1OCC(=O)NCC1CCOCC1` [Example 10, 2-(2-methyl-4-(2-phenyl-1-(((4-(trifluoromethyl)benzyl)oxy)imino)ethyl)phenoxy)-N-((tetrahydro-2H-pyran-4-yl)methyl)acetamide], the inhibition at 1 µM worked out at 3%, the inhibition at 5 µM worked out at 18%, the inhibition at 10 µM was 35% and the inhibition at 100 µM stood at 51%.

For `Cc1ccc(CON=C(Cc2ccccc2)c2ccc(OCC(=O)NCC3CCOCC3)cc2)cc1` [Example 33, 2-(4-(1-(((4-methylbenzyl)oxy)imino)-2-phenylethyl)phenoxy)-N-((tetrahydro-2H-pyran-4-yl)methyl)acetamide], the inhibition at 1 µM is 10%, the inhibition at 10 µM was 10% and the inhibition at 100 µM came out at 28%.

As to `CCC(=NOCc1ccc(C(F)(F)F)cc1)c1ccc(NCC(=O)NCC2CCOCC2)nc1` [Example 23, N-((tetrahydro-2H-pyran-4-yl)methyl)-2-((5-(1-(((4-(trifluoromethyl)benzyl)oxy)imino)propyl)pyridin-2-yl)amino)acetamide], the inhibition at 1 µM amounted to 30%, the inhibition at 10 µM was determined as 42% and the inhibition at 100 µM was 47%.

As for `CCC(=NOCc1ccc(C#N)cc1)c1ccc(OCC(=O)NCC2CCOCC2)nc1` [Example 28, 2-((5-(1-(((4-cyanobenzyl)oxy)imino)propyl)pyridin-2-yl)oxy)-N-((tetrahydro-2H-pyran-4-yl)methyl)acetamide], the inhibition at 100 µM came to 23%.

For `O=C(COc1ccc(C(Cc2ccccc2)=NOCc2ccc(OC(F)(F)F)cc2)cc1)NCC1CCOCC1` [Example 39, 2-(4-(2-phenyl-1-(((4-(trifluoromethoxy)benzyl)oxy)imino)ethyl)phenoxy)-N-((tetrahydro-2H-pyran-4-yl)methyl)acetamide], the inhibition at 10 µM stood at 33% and the inhibition at 100 µM stood at 42%.

For the compound `O=C(COc1ccc(C(CN2CCOCC2)=NOCc2ccc(C(F)(F)F)cc2)cc1)NCC1CCOCC1` [Example 14, 2-(4-(2-morpholino-1-(((4-(trifluoromethyl)benzyl)oxy)imino)ethyl)phenoxy)-N-((tetrahydro-2H-pyran-4-yl)methyl)acetamide], the inhibition at 1 µM was 15%, the inhibition at 10 µM was 31% and the inhibition at 100 µM stood at 41%.

Regarding `CCC(=NOCc1ccc(C)cc1)c1ccc(OCC(=O)NCC2CCOCC2)nc1` [Example 25, 2-((5-(1-(((4-methylbenzyl)oxy)imino)propyl)pyridin-2-yl)oxy)-N-((tetrahydro-2H-pyran-4-yl)methyl)acetamide], the inhibition at 1 µM is 28%, the inhibition at 10 µM was 34% and the inhibition at 100 µM came out at 50%.

For `CCC(=NOCc1ccc(F)cc1)c1ccc(OCC(=O)NCC2CCOCC2)nc1` [Example 27, 2-((5-(1-(((4-fluorobenzyl)oxy)imino)propyl)pyridin-2-yl)oxy)-N-((tetrahydro-2H-pyran-4-yl)methyl)acetamide], the inhibition at 1 µM is 10%, the inhibition at 10 µM is 15% and the inhibition at 100 µM was determined as 29%.

For the compound `O=C(COc1ccc(C=NOCc2ccc(C(F)(F)F)cc2)cc1)NCC1CCOCC1` [Example 17, N-((tetrahydro-2H-pyran-4-yl)methyl)-2-(4-((((4-(trifluoromethyl)benzyl)oxy)imino)methyl)phenoxy)acetamide], the inhibition at 1 µM was found to be 13%, the inhibition at 10 µM was 19% and the inhibition at 100 µM stood at 44%.

As for `CCC(=NOCc1ccc(OC)cc1)c1ccc(OCC(=O)NCC2CCOCC2)nc1` [Example 26, 2-((5-(1-(((4-methoxybenzyl)oxy)imino)propyl)pyridin-2-yl)oxy)-N-((tetrahydro-2H-pyran-4-yl)methyl)acetamide], the inhibition at 1 µM was 45%, the inhibition at 10 µM turned out to be 45% and the inhibition at 100 µM stood at 52%.

As to `O=C(COc1ccc(C(Cc2ccccc2)=NOCc2cccc(C(F)(F)F)c2)cc1)NCC1CCOCC1` [Example 12, 2-(4-(2-phenyl-1-(((3-(trifluoromethyl)benzyl)oxy)imino)ethyl)phenoxy)-N-((tetrahydro-2H-pyran-4-yl)methyl)acetamide], the inhibition at 1 µM amounted to 19%, the inhibition at 10 µM stood at 55% and the inhibition at 100 µM was found to be 79%.

Consider `O=C(COc1ccc(C(Cc2ccccc2)=NOCc2ccc(Cl)cc2)cc1)NCC1CCOCC1` [Example 37, 2-(4-(1-(((4-chlorobenzyl)oxy)imino)-2-phenylethyl)phenoxy)-N-((tetrahydro-2H-pyran-4-yl)methyl)acetamide], for which the inhibition at 1 µM was found to be 20%, the inhibition at 10 µM is 26% and the inhibition at 100 µM was 28%.

In the case of `O=C(COc1ccc(C(Cc2ccccc2)=NOCc2ccc(F)cc2)cc1)NCC1CCOCC1` [Example 35, 2-(4-(1-(((4-fluorobenzyl)oxy)imino)-2-phenylethyl)phenoxy)-N-((tetrahydro-2H-pyran-4-yl)methyl)acetamide], the inhibition at 1 µM turned out to be 22%, the inhibition at 10 µM was 13% and the inhibition at 100 µM is 25%.
